Measured values from patent publication US7101872B2, “Farnesyl dibenzodiazepinone, and processes for its production” (Ecopia BioSciences, Inc., priority 2003, dated 2006).

Experiments:
Assay in all cases: NCI panel SRB growth inhibition
Assay type in all cases: cell-based
786-0 = conditions: Homo sapiens, 786-0, Renal, 48 h
Procedure: (§1) The operation of this unique screen utilizes […] different human tumor cell lines, representing leukemia, melanoma and cancers of the lung, colon, brain, ovary, breast, prostate, and kidney.
(§2) Culture conditions and plating: The human tumor cell lines of the cancer-screening panel were grown in RPMI 1640 medium containing 5% fetal bovine serum and 2 mM L-glutamine. For a typical screening experiment, cells were inoculated into 96 well microtiter plates in 100 μL at plating densities ranging from 5,000 to 40,000 cells/well depending on the doubling time of individual cell lines (Table 5). After cell inoculation, the microtiter plates were incubated at 37° C., 5% CO2, 95% air and 100% relative humidity for 24 h prior to addition of experimental drugs. After 24 h, two plates of each cell line were fixed in situ with TCA, to represent a measurement of the cell population for each cell line at the time of drug addition (Tz). Evaluation of inhibitory activity on cell proliferation: ECO-04601 was provided as a lyophilized powder with an estimated purity of 90+%. The compound was stored at −20° C. until day of use. ECO-04601 was solubilized in dimethyl sulfoxide at 400-fold the desired final maximum test concentration. At the time of drug addition, an aliquot of frozen concentrate was thawed and diluted to twice the desired final maximum test concentration with complete medium containing 50 μg/mL gentamicin. Additional four, 10-fold or Y2 log serial dilutions were made to provide a total of five drug concentrations plus control. Aliquots of 100 μl of these different drug dilutions were added to the appropriate microtiter wells already containing 100 μl of medium, resulting in the required final drug concentrations (8.0×10^−5 M to 8.0×10^−9 M).
(§3) Following drug addition, the plates were incubated for an additional 48 h at 37° C., 5% CO2, 95% air, and 100% relative humidity. For adherent cells, the assay was terminated by the addition of cold TCA. Cells were fixed in situ by the gentle addition of 50 μl of cold 50% (w/v) TCA (final concentration, 10% TCA) and incubated for 60 minutes at 4° C. Supernatants were discarded, and the plates were washed five times with tap water and air-dried. Sulforhodamine B (SRB) solution (100 μl) at 0.4% (w/v) in 1% acetic acid was added to each well, and plates were incubated for 10 minutes at room temperature. After staining, unbound dye was removed by washing five times with 1% acetic acid and the plates were air-dried. Bound stain was subsequently solubilized with 10 mM trizma base, and the absorbance was read on an automated plate reader at a wavelength of 515 nm. For suspension cells, the methodology was the same except that the assay was terminated by fixing settled cells at the bottom of the wells by gently adding 50 μl of 80% TCA (final concentration, 16% TCA).
(§4) The growth inhibitory activity of ECO-04601 was measured by NCI utilizing the GI50 value, rather than the classical IC50 value.

A498 = conditions: Homo sapiens, A498, Renal, 48 h
Procedure: as §1, §2, §3, §4

A549/ATCC = conditions: Homo sapiens, Non-Small Cell Lung, 48 h
Procedure: as §1, §2, §3, §4

ACHN = conditions: Homo sapiens, Renal, 48 h
Procedure: as §1, §2, §3, §4

BT-549 = conditions: Homo sapiens, BT-549, Breast, 48 h
Procedure: as §1, §2, §3, §4

CCRF-CEM = conditions: Homo sapiens, Leukemia, 48 h
Procedure: as §1, §2, §3, §4

HCT-116 = conditions: Homo sapiens, HCT-116, Colon, 48 h
Procedure: as §1, §2, §3, §4

HCT-15 = conditions: Homo sapiens, HCT-15, Colon, 48 h
Procedure: as §1, §2, §3, §4

HT29 = conditions: Homo sapiens, HT-29, HT29, Colon, 48 h
Procedure: as §1, §2, §3, §4

LOX IMVI = conditions: Homo sapiens, Melanoma, 48 h
Procedure: as §1, §2, §3, §4

MCF7 = conditions: Homo sapiens, MCF7, Breast, 48 h
Procedure: as §1, §2, §3, §4

MDA-MB-435 = conditions: Homo sapiens, MDA-MB-435, Breast, 48 h
Procedure: as §1, §2, §3, §4

NCI-H226 = conditions: Homo sapiens, NCI-H226, Non-Small Cell Lung, 48 h
Procedure: as §1, §2, §3, §4

NCI-H23 = conditions: Homo sapiens, NCI-H23, Non-Small Cell Lung, 48 h
Procedure: as §1, §2, §3, §4

NCI-H460 = conditions: Homo sapiens, NCI-H460, Non-Small Cell Lung, 48 h
Procedure: as §1, §2, §3, §4

NCI/ADR-RES = conditions: Homo sapiens, Breast, 48 h
Procedure: as §1, §2, §3, §4

OVCAR-3 = conditions: Homo sapiens, OVCAR-3, Ovarian, 48 h
Procedure: as §1, §2, §3, §4

OVCAR-8 = conditions: Homo sapiens, OVCAR-8, Ovarian, 48 h
Procedure: as §1, §2, §3, §4

RXF 393 = conditions: Homo sapiens, RXF 393, Renal, 48 h
Procedure: as §1, §2, §3, §4

SF-295 = conditions: Homo sapiens, SF-295, CNS, 48 h
Procedure: as §1, §2, §3, §4

SF-539 = conditions: Homo sapiens, SF-539, CNS, 48 h
Procedure: as §1, §2, §3, §4

SK-MEL-28 = conditions: Homo sapiens, SK-MEL-28, Melanoma, 48 h
Procedure: as §1, §2, §3, §4

SK-MEL-5 = conditions: Homo sapiens, SK-MEL-5, Melanoma, 48 h
Procedure: as §1, §2, §3, §4

SN12C = conditions: Homo sapiens, Renal, 48 h
Procedure: as §1, §2, §3, §4

SNB-75 = conditions: Homo sapiens, SNB-75, CNS, 48 h
Procedure: as §1, §2, §3, §4

UO-31 = conditions: Homo sapiens, UO-31, Renal, 48 h
Procedure: as §1, §2, §3, §4

## CC(C)=CCC/C(C)=C/CC/C(C)=C/CN1C(=O)c2cccc(O)c2Nc2c(O)cc(O)cc21 [ECO-04601, 10-farnesyl-4,6,8-trihydroxy-dibenzodiazepin-11-one]
786-0
  GI50: 6.99 µM
A498
  GI50: 22.3 µM
A549/ATCC
  GI50: 9.1 µM
ACHN
  GI50: 3.1 µM
BT-549
  GI50: 0.11 µM
CCRF-CEM
  GI50: 1.08 µM
HCT-116
  GI50: 2.92 µM
HCT-15
  GI50: 9.73 µM
HT29
  GI50: 20.7 µM
LOX IMVI
  GI50: 4.53 µM
MCF7
  GI50: 10.1 µM
MDA-MB-435
  GI50: 15.3 µM
NCI-H226
  GI50: 2 µM
NCI-H23
  GI50: 2.02 µM
NCI-H460
  GI50: 13.6 µM
NCI/ADR-RES
  GI50: 18.3 µM
OVCAR-3
  GI50: 13.5 µM
OVCAR-8
  GI50: 2.65 µM
RXF 393
  GI50: 7.71 µM
SF-295
  GI50: 12.7 µM
SF-539
  GI50: 0.0075 µM
SK-MEL-28
  GI50: 11.6 µM
SK-MEL-5
  GI50: 7.8 µM
SN12C
  GI50: 3.85 µM
SNB-75
  GI50: 7.71 µM
UO-31
  GI50: 19.7 µM
